Read-outs that look alike come from different tables or passages of the source.
How the values were obtained:
[1] = Terminal plasma and brain concentrations in mice; type: in vivo; conditions: C57BL/6J, mouse, intraperitoneal
Experimental: Prior to the onset of procedures, animals were weighed and allocated into 5 groups by a statistician based on body weight. Animals sharing a cage were dosed with the same drug treatments to avoid cross contamination between groups. Animals were dosed intraperitoneally with psilocybin (3 mg/kg), or one of 3 doses of compound 2-2 (1 mg/kg, 3 mg/kg, 10 mg/kg). Dosing was to a timed scheduled. Animals were weighed prior to dosing and the body weight recorded. Food and water intake were not monitored. The animals were dosed at time “0” and then returned to the home cage. Behaviors of note after dosing were recorded. Each animal was humanely killed (by exposure to increasing CO2 concentration and confirmation of death by cervical dislocation) to allow terminal blood sampling to take place 15 minutes after dosing. The brain sampling was performed immediately after blood sampling was completed for each animal.
Post-mortem blood samples (approx. 0.5 ml) were collected from all animals by cardiac puncture for DMPK analysis, dispensed into a LH-coated tube. The blood samples were gently inverted, centrifuged promptly (2400 g for 5 minutes at 4° C.) and 150 μl of plasma from each animal was placed into a 96-well plate. Plasma samples from group B were stabilized with DTT (50 mM; 1:10). All plasma samples were frozen on dry ice and stored at approximately −80° C. prior to analysis. Whole brains were removed from all animals, rinsed briefly with saline and blot dried. The left and right frontal cortices (˜25 mg each frontal cortex) were dissected separately from the brain, weighed, placed in microtubes, frozen on dry ice and stored at −20° C. to measure receptor occupancy. The remaining brain tissue was weighed, placed in homogenization tubes, frozen on dry ice, and stored at −80° C. prior to transferring (on dry ice) to Signature DMPK with the plasma samples.

male Sprague Dawley rats = test: Psilocybin operant drug discrimination in rats; type: in vivo, rat
Experimental: Thirty-six (36) male Sprague Dawley rats served as subjects. Rats had been trained to lever press for food in standard operant conditioning chambers controlled by Med-PC software (Med. Associates Inc., St. Albans, VT) followed by training to associate the right lever to a psilocybin stimulus (0.5 mg/kg, SC), and the left lever to a neutral stimulus (saline, SC). The sequence of psilocybin and saline injections were administered under a randomized design where neither condition was administered for more than 3 consecutive days. […] The rats continued to receive a daily food ration (˜18 g at day end) with ad libitum access to water in their home cages.
Test sessions continued until 50 pellets had been obtained or 30 min had elapsed. During these sessions, response rate was also measured. Three types of tests were conducted: • 1. Dose-response profile for compound 2-2 to generalize to the psilocybin cue. On test days, rats received a single compound 2-2 dose (1, 3, or 10 mg/kg, IP) 10 min prior to test. The distribution of vehicle vs. drug-paired lever presses was recorded as well as the rate of lever response. • 2. Effect of the 5-HT subtype selective antagonists, M100907 (5-HT2A receptor selective; Kehne et al, 1996) and SB242084 (5-HT2C receptor selective, Kennett et al, 1997) against the generalization of compound 2-2. On test days, the rats received a single dose (0.5 mg/kg IP) of either antagonist 30 min before compound 2-2 (10 mg/kg, IP), which was administered 10 min prior to testing. The distribution of vehicle vs. drug-paired lever presses was recorded as well as the rate of lever response. • 3. Time-course profile for compound 2-2 (10 mg/kg IP) to generalize to the psilocybin cue. On test days, the rats received a single compound 2-2 dose (10 mg/kg, IP) at various pretreatment times (i.e., 10 min, 30 min, 1 h, 2 h, 4 h, 8 h) prior to test. The distribution of vehicle vs. drug-paired lever presses was recorded as well as the rate of lever response.
Drug testing was conducted on a Tuesday and Friday with the animals run on either vehicle or training drug (psilocybin 0.5 mg/kg, SC) on intervening weekdays. Group sizes varied among doses and pretreatment times and tended to be higher under situations where the choice response was more variable. This adjustment was made in an attempt to get as reliable a measure of drug vs. vehicle discrimination as possible at that specific dose or pretreatment time.

5-HT2A receptor = 5-HT2A receptor (Mus musculus, UniProt P35363); test: 5-HT2A receptor binding in mouse frontal cortical tissue
Chain of 5-HT2A receptor (P35363 whole entry): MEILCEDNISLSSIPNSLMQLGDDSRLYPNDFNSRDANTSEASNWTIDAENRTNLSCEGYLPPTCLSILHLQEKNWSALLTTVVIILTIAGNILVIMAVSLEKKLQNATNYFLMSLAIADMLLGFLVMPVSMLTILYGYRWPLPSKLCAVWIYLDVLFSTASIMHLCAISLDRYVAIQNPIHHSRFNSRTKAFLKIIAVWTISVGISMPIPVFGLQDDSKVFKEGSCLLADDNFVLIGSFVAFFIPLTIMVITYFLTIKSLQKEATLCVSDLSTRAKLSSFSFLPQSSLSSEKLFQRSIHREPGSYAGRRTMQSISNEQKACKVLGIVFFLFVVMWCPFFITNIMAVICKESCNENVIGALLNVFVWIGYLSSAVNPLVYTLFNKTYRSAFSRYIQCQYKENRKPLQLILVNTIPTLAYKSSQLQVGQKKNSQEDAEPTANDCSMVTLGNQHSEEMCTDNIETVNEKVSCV

For COc1ccc(OC)c(CCNCc2cc(C)cc(F)c2)c1 [Compound 2-2, 2-(2,5-dimethoxyphenyl)-N-(3-fluoro-5-methylbenzyl)ethan-1-amine], the concentration at 15 min ([1]; brain, 1 mg/kg, 1 mg/kg IP, read-out: Terminal Brain Conc (ng/g) at 15 min, Mean) was 182 ng/g, the concentration at 15 min ([1]; brain, 1 mg/kg, 1 mg/kg IP, read-out: Terminal Brain Free Concentration (uM) at 15 min, Mean) was 0.01 µM and the concentration at 15 min ([1]; brain, 1 mg/kg, 1 mg/kg IP, read-out: Terminal Brain Total Concentration (uM) at 15 min, Mean) was 0.6 µM. It also gave a concentration at 15 min ([1]; brain, 3 mg/kg, 3 mg/kg IP, read-out: Terminal Brain Free Concentration (uM) at 15 min, Mean) of 0.039 µM, a concentration at 15 min ([1]; brain, 10 mg/kg, 10 mg/kg IP, read-out: Terminal Brain Conc (ng/g) at 15 min, Mean) of 3280 ng/g and a concentration at 15 min ([1]; brain, 10 mg/kg, 10 mg/kg IP, read-out: Terminal Brain Free Concentration (uM) at 15 min, Mean) of 0.175 µM. For the same compound, the concentration at 15 min ([1]; brain, 10 mg/kg, 10 mg/kg IP, read-out: Terminal Brain Total Concentration (uM) at 15 min, Mean) was 10.8 µM, the concentration at 15 min ([1]; plasma, 1 mg/kg, 1 mg/kg IP, read-out: Terminal Plasma Conc (ng/mL) at 15 min, Mean) was 60.1 ng/mL and the concentration at 15 min ([1]; plasma, 1 mg/kg, 1 mg/kg IP, read-out: Terminal Plasma Free Concentration (uM) at 15 min, Mean) was 0.016 µM. For the same compound, the concentration at 15 min ([1]; plasma, 1 mg/kg, 1 mg/kg IP, read-out: Terminal Plasma Total Concentration (uM) at 15 min, Mean) was 0.2 µM, the concentration at 15 min ([1]; plasma, 3 mg/kg, 3 mg/kg IP, read-out: Terminal Plasma Free Concentration (uM) at 15 min, Mean) was 0.082 µM and the concentration at 15 min ([1]; plasma, 10 mg/kg, 10 mg/kg IP, read-out: Terminal Plasma Conc (ng/mL) at 15 min, Mean) was 1020 ng/mL. The concentration at 15 min ([1]; plasma, 10 mg/kg, 10 mg/kg IP, read-out: Terminal Plasma Free Concentration (uM) at 15 min, Mean) was 0.277 µM, the concentration at 15 min ([1]; plasma, 10 mg/kg, 10 mg/kg IP, read-out: Terminal Plasma Total Concentration (uM) at 15 min, Mean) was 3.38 µM and the “generalization to the psilocybin cue” value (male Sprague Dawley rats; 10 mg/kg IP after M100907 0.5 mg/kg IP (30 min before)) was 2+1%. The “generalization to the psilocybin cue” value (male Sprague Dawley rats; 10 mg/kg IP after SB242084 0.5 mg/kg IP (30 min before)) was 71+14%, the response rate (male Sprague Dawley rats; 10 mg/kg IP following antagonist pretreatment) was “no significant effect” and the “generalization to the psilocybin cue” value (male Sprague Dawley rats; 10 mg/kg IP, 10 min prior to test (Veh pretreatment)) was 91+8%. For the same compound, the “generalization to the psilocybin cue” value (male Sprague Dawley rats; 10 mg/kg IP, pretreatment time 4 h) was about 35%, the “generalization to the psilocybin cue” value (male Sprague Dawley rats; 10 mg/kg IP, pretreatment times of 10 and 30 min) was about 80% and the response rate (male Sprague Dawley rats; 10 mg/kg IP, across pretreatment times 10 min-8 h) was “minor effect”. For the same compound, the rate of responding (male Sprague Dawley rats; 10 mg/kg IP, only at 10 min post dose) was “modestly suppressed”, the response rate (male Sprague Dawley rats; dose range 1-10 mg/kg IP) was “minor effects” and the IC50 (5-HT2A receptor) was 20.8 nM. For the same compound, the Ki (5-HT2A receptor; Ki, Mean (Mouse), mouse frontal cortical tissue) was 9.6 nM.

From patent US12343319B2, “Compositions and methods for treatment of diseases and disorders” (Atai Therapeutics Inc., priority 2023, dated 2025)
